# Results taken from PubChem BioAssay AID248 (DTP/NCI, 2004).
# Where “and” joins values, the source holds several entries; their conditions need not be identical. Equal entries are not always repeated. Inconclusive results and toxic doses are left out.
# System: L1210 leukemia ip in BDF1 mice, survival T/C
# Test: NCI In Vivo Anticancer Drug Screen. Data for tumor model L1210 Leukemia (intraperitoneal) in B6D2F1 (BDF1) mice
# Settings: endpoint: mean survival time, higher = longer survival
# Method in brief: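 Transplanted-tumor mice were given test agent; controls received vehicle only. Survival readings from the two groups were divided (treated over control).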
# [1] = dose: 100.0 mg/kg/injection, schedule: Q04DX003 (ip), vehicle: Klucel (hydroxypropylcellulose) (HPC)
# [2] = dose: 200.0 mg/kg/injection, schedule: Q04DX003 (ip), vehicle: Klucel (hydroxypropylcellulose) (HPC)
# [3] = dose: 400.0 mg/kg/injection, schedule: Q04DX003 (ip), vehicle: Klucel (hydroxypropylcellulose) (HPC)
# [4] = dose: 12.5 mg/kg/injection, schedule: Q01DX009 (ip), vehicle: Klucel (hydroxypropylcellulose) (HPC)
# [5] = dose: 25.0 mg/kg/injection, schedule: Q01DX009 (ip), vehicle: Klucel (hydroxypropylcellulose) (HPC)
# [6] = dose: 100.0 mg/kg/injection, schedule: Q01DX001 (ip), vehicle: Klucel (hydroxypropylcellulose) (HPC)
# [7] = dose: 200.0 mg/kg/injection, schedule: Q01DX001 (ip), vehicle: Klucel (hydroxypropylcellulose) (HPC)
# [8] = dose: 400.0 mg/kg/injection, schedule: Q01DX001 (ip), vehicle: Klucel (hydroxypropylcellulose) (HPC)
# [9] = dose: 100.0 mg/kg/injection, schedule: Q01DX009 (ip), vehicle: Klucel (hydroxypropylcellulose) (HPC)
# [10] = dose: 200.0 mg/kg/injection, schedule: Q01DX009 (ip), vehicle: Klucel (hydroxypropylcellulose) (HPC)
# [11] = dose: 400.0 mg/kg/injection, schedule: Q01DX009 (ip), vehicle: Klucel (hydroxypropylcellulose) (HPC)
# [12] = dose: 100.0 mg/kg/injection, schedule: Q04DX003 (ip), vehicle: saline with Tween-80
# [13] = dose: 100.0 mg/kg/injection, schedule: Q01DX001 (ip), vehicle: saline
# [14] = dose: 100.0 mg/kg/injection, schedule: Q01DX009 (ip), vehicle: saline
# [15] = dose: 200.0 mg/kg/injection, schedule: Q01DX001 (ip), vehicle: saline
# [16] = dose: 200.0 mg/kg/injection, schedule: Q01DX009 (ip), vehicle: saline
# [17] = dose: 400.0 mg/kg/injection, schedule: Q01DX001 (ip), vehicle: saline
smiles,measurement,setting,value
Cc1nonc1C,T/C,"dose: 31.2 mg/kg/injection, schedule: Q01DX Z (ip), vehicle: other",100 % of control
same,T/C,"dose: 62.5 mg/kg/injection, schedule: Q01DX Z (ip), vehicle: other",90 % of control
same,T/C,[1],103 % of control
same,T/C,"dose: 125.0 mg/kg/injection, schedule: Q01DX Z (ip), vehicle: other",88 % of control
same,T/C,[2],98 % of control
same,T/C,"dose: 250.0 mg/kg/injection, schedule: Q01DX Z (ip), vehicle: other",90 % of control
same,T/C,[3],106 % of control
C1CCC2C(C1)C2(N1CCCC1)N1CCCC1 (configuration not stated),T/C,"dose: 6.25 mg/kg/injection, schedule: Q01DX009 (ip), vehicle: Klucel (hydroxypropylcellulose) (HPC)",101 % of control
same,T/C,[4],100 % of control
same,T/C,"dose: 12.5 mg/kg/injection, schedule: Q04DX003 (ip), vehicle: Klucel (hydroxypropylcellulose) (HPC)",98 % of control
same,T/C,[5],93 % of control and 92 % of control
same,T/C,"dose: 25.0 mg/kg/injection, schedule: Q04DX003 (ip), vehicle: Klucel (hydroxypropylcellulose) (HPC)",98 % of control
same,T/C,"dose: 50.0 mg/kg/injection, schedule: Q04DX003 (ip), vehicle: Klucel (hydroxypropylcellulose) (HPC)",94 % of control
COc1ccccc1-n1c(O)c(N=Nc2ccc(Br)cc2)c(=O)n(-c2ccccc2OC)c1=S,T/C,[6],103 % of control
same,T/C,[7],105 % of control
same,T/C,[8],92 % of control
BrC1C(Br)C(Br)C2OC2C1Br (configuration not stated),T/C,[9],96 % of control
same,T/C,[10],102 % of control
same,T/C,[11],98 % of control
COC1=C(OC)C(=O)C(SCCCc2ccccc2)=CC1=O,T/C,"dose: 1.56 mg/kg/injection, schedule: Q01DX009 (im), vehicle: olive oil, sesame oil, peanut oil",101 % of control
same,T/C,"dose: 3.13 mg/kg/injection, schedule: Q01DX009 (im), vehicle: olive oil, sesame oil, peanut oil",96 % of control
same,T/C,"dose: 6.25 mg/kg/injection, schedule: Q01DX009 (im), vehicle: olive oil, sesame oil, peanut oil",98 % of control
same,T/C,"dose: 12.5 mg/kg/injection, schedule: Q01DX009 (im), vehicle: olive oil, sesame oil, peanut oil",101 % of control
same,T/C,"dose: 25.0 mg/kg/injection, schedule: Q01DX009 (im), vehicle: olive oil, sesame oil, peanut oil",98 % of control
Nc1nc(=S)c2[nH]c(N=Nc3ccc(S(=O)(=O)Nc4ncccn4)cc3)nc2[nH]1,T/C,"dose: 19.0 mg/kg/injection, schedule: Q04DX003 (ip), vehicle: Klucel (hydroxypropylcellulose) (HPC)",164 % of control
same,T/C,"dose: 29.0 mg/kg/injection, schedule: Q04DX003 (ip), vehicle: Klucel (hydroxypropylcellulose) (HPC)",164 % of control
same,T/C,[9],96 % of control
same,T/C,[12],185 % of control
same,T/C,[10],97 % of control
same,T/C,"dose: 200.0 mg/kg/injection, schedule: Q04DX003 (ip), vehicle: saline with Tween-80",151 % of control
CC(=O)OC1CCC2(C)C(=CCC3C2CCC2(C)C(C(C)C(O)C4C(=O)OCC4C(c4ccccc4)(c4ccccc4)c4ccccc4)CCC32)C1 (configuration not stated),T/C,"dose: 100.0 mg/kg/injection, schedule: Q04DX002 (sc), vehicle: gum acacia",95 % of control
same,T/C,"dose: 200.0 mg/kg/injection, schedule: Q04DX002 (sc), vehicle: gum acacia",95 % of control
same,T/C,"dose: 400.0 mg/kg/injection, schedule: Q04DX002 (sc), vehicle: gum acacia",92 % of control
O=C1NC2(c3ccccc3)NC(=O)NC2(c2ccccc2)N1 (configuration not stated),T/C,[13],97 % of control
same,T/C,[14],91 % of control
same,T/C,"dose: 100.0 mg/kg/injection, schedule: Q04DX003 (ip), vehicle: saline",102 % of control
same,T/C,[15],92 % of control
same,T/C,[16],97 % of control
same,T/C,"dose: 200.0 mg/kg/injection, schedule: Q04DX003 (ip), vehicle: saline",95 % of control
same,T/C,[17],100 % of control
same,T/C,"dose: 400.0 mg/kg/injection, schedule: Q01DX009 (ip), vehicle: saline",102 % of control
same,T/C,"dose: 400.0 mg/kg/injection, schedule: Q04DX003 (ip), vehicle: saline",102 % of control
O=C(N/N=C/c1ccccn1)C1CCCO1 (configuration not stated),T/C,"dose: 25.0 mg/kg/injection, schedule: Q01DX009 (ip), vehicle: saline",102 % of control
same,T/C,"dose: 50.0 mg/kg/injection, schedule: Q01DX009 (ip), vehicle: saline",102 % of control
same,T/C,[14],98 % of control and 116 % of control
same,T/C,[16],117 % of control
Nc1c(I)cc([N+](=O)[O-])cc1I,T/C,[1],95 % of control
same,T/C,[2],93 % of control
same,T/C,[3],98 % of control
O=[N+]([O-])c1ccc2c(c1)[As](=O)(O)c1cc([N+](=O)[O-])ccc1-2,T/C,"dose: 75.0 mg/kg/injection, schedule: Q01DX001 (ip), vehicle: saline",120 % of control
CCOCc1cccc(C(=O)NCCCc2c(-c3ccccc3)nc(N)[nH]c2=O)c1,T/C,"dose: 36.2 mg/kg/injection, schedule: Q01DX001 (ip), vehicle: Klucel (hydroxypropylcellulose) (HPC)",94 % of control
same,T/C,"dose: 62.5 mg/kg/injection, schedule: Q01DX001 (ip), vehicle: Klucel (hydroxypropylcellulose) (HPC)",105 % of control
same,T/C,"dose: 125.0 mg/kg/injection, schedule: Q01DX001 (ip), vehicle: Klucel (hydroxypropylcellulose) (HPC)",98 % of control
O=P(O)(O)CCC(O)CO (configuration not stated),T/C,"dose: 100.0 mg/kg/injection, schedule: Q04DX002 (ip), vehicle: saline",94 % of control
same,T/C,"dose: 200.0 mg/kg/injection, schedule: Q04DX002 (ip), vehicle: saline",97 % of control
same,T/C,"dose: 400.0 mg/kg/injection, schedule: Q04DX002 (ip), vehicle: saline",102 % of control
CCCCCCCCCCCCCCCC(=O)OCc1cc(=O)c(O)co1,T/C,[9],95 % of control
same,T/C,[1],91 % of control
same,T/C,[10],101 % of control
same,T/C,[2],94 % of control
same,T/C,[11],97 % of control
same,T/C,[3],94 % of control
CCCCCCCCCCCCCCCCSc1ccc2ccccc2c1,T/C,[1],100 % of control
same,T/C,[2],96 % of control
same,T/C,[3],87 % of control
O=Nc1ccc(SCC(=O)NNC(=O)CSc2ccc(N=O)cc2[N+](=O)[O-])cc1,T/C,[12],93 % of control
CC[n+]1ccc(/C=C\c2c(Cl)cccc2Cl)cc1,T/C,[4],100 % of control
same,T/C,[5],100 % of control
same,T/C,[1],100 % of control
same,T/C,[2],100 % of control
same,T/C,[3],112 % of control
COC1C(=O)CCC2(CO2)C1(O)C1(C)OC1CCC(C)C (configuration not stated),T/C,"dose: 100.0 mg/kg/injection, schedule: Q01DX009 (ip), vehicle: acetone",95 % of control
same,T/C,"dose: 200.0 mg/kg/injection, schedule: Q01DX009 (ip), vehicle: acetone",92 % of control
CC1Cc2cccc3cc4c(ccc5ccccc54)c1c23 (configuration not stated),T/C,[6],98 % of control and 104 % of control
same,T/C,[7],97 % of control and 103 % of control
same,T/C,[8],95 % of control and 110 % of control
Nc1c(Cl)cc(S(=O)(=O)O)cc1Br,T/C,"dose: 50.0 mg/kg/injection, schedule: Q01DX001 (ip), vehicle: saline",101 % of control
same,T/C,[13],103 % of control
same,T/C,[15],101 % of control
same,T/C,[17],101 % of control
CCCCN(C)/N=N/c1nc[nH]c1C(=O)OC,T/C,"dose: 33.0 mg/kg/injection, schedule: Q01DX015 (ip), vehicle: carboxymethylcellulose (CMC)",108 % of control
same,T/C,"dose: 45.0 mg/kg/injection, schedule: Q01DX015 (ip), vehicle: carboxymethylcellulose (CMC)",117 % of control
same,T/C,"dose: 60.0 mg/kg/injection, schedule: Q01DX015 (ip), vehicle: carboxymethylcellulose (CMC)",95 % of control
same,T/C,"dose: 75.0 mg/kg/injection, schedule: Q01DX015 (ip), vehicle: carboxymethylcellulose (CMC)",86 % of control
same,T/C,"dose: 100.0 mg/kg/injection, schedule: Q01DX001 (ip), vehicle: carboxymethylcellulose (CMC)",98 % of control
same,T/C,"dose: 200.0 mg/kg/injection, schedule: Q01DX001 (ip), vehicle: carboxymethylcellulose (CMC)",104 % of control
same,T/C,"dose: 400.0 mg/kg/injection, schedule: Q01DX001 (ip), vehicle: carboxymethylcellulose (CMC)",124 % of control
COc1ccc(N(N=O)C(C)C)cc1,T/C,"dose: 12.5 mg/kg/injection, schedule: Q01DX009 (ip), vehicle: saline with Tween-80",87 % of control
same,T/C,"dose: 25.0 mg/kg/injection, schedule: Q01DX009 (ip), vehicle: saline with Tween-80",94 % of control
same,T/C,"dose: 50.0 mg/kg/injection, schedule: Q01DX009 (ip), vehicle: saline with Tween-80",87 % of control
same,T/C,"dose: 100.0 mg/kg/injection, schedule: Q01DX009 (ip), vehicle: saline with Tween-80",89 % of control
same,T/C,"dose: 200.0 mg/kg/injection, schedule: Q01DX009 (ip), vehicle: saline with Tween-80",92 % of control
